Assay results as given in patent US9102698B2 (CAN-FITE BIOPHARMA LTD., priority 2007, dated 2015).

Tests used:
[1] = Solubility study on 3-iodobenzylamine hydrochloride in synthesis solvents; type: physicochemical
Description: 3-Iodobenzylamine hydrochloride recrystallized from protic solvents but was insoluble in aprotic organic solvents. No purity enhancement was observed during hot (reflux) slurries in aprotic organic solvents.

[2] = tested on: A3AR; conditions: synovial and peripheral blood mononuclear cells of AIA rats, upon IB-MECA treatment; cited from earlier work
[3] = tested on: colon carcinoma; conditions: oral, nude mice; cited from earlier work
[4] = tested on: tumors (melanoma, colon carcinoma, prostate carcinoma); conditions: orally administered; syngeneic (melanoma, colon carcinoma) and xenograft (colon and prostate carcinoma) mouse models; cited from earlier work
[5] = tested on: collagen and adjuvant induced arthritis (AIA); conditions: experimental animal models; cited from earlier work
[6] = tested on: neutrophils; conditions: oral, mice, cited from earlier work
[7] = tested on: TNF-α and MIP-1α; conditions: in vitro; cited from earlier work

Behavior at 21 C. ([1]; IPA, 10 solvent volumes) | Behavior at reflux ([1]; IPA, 10 solvent volumes) | Behavior at 21 C. ([1]; IPAc, 10 solvent volumes) | Behavior at reflux ([1]; IPAc, 10 solvent volumes) | Behavior at 21 C. ([1]; MeCN, 5 solvent volumes) | Behavior at reflux ([1]; MeCN, 5 solvent volumes) | Behavior at 21 C. ([1]; MeOH, 1 solvent volume) | Behavior at reflux ([1]; MeOH, 1 solvent volume) | Behavior at 21 C. ([1]; THF, 10 solvent volumes) | Behavior at reflux ([1]; THF, 10 solvent volumes) | Compound | A3AR level [2] | neutrophil recovery after cytotoxic drug therapy [3] | progression of colon carcinoma [3] | development of tumors [4] | development of collagen and adjuvant induced arthritis [5] | cytotoxic-induced myelo-toxicity [6] | production of neutrophils ([6]; via an increase in G-CSF) | production of MIP-1α [7] | production of TNF-α [7]
Insoluble | Soluble | Insoluble | Insoluble | Insoluble | Insoluble | Insoluble | Soluble | Insoluble | Insoluble | Cl.NCc1cccc(I)c1 [3-iodobeuzylamine hydrochloride, 3-iodobenzylamine hydrochloride] | – | – | – | – | – | – | – | – | –
– | – | – | – | – | – | – | – | – | – | CNC(=O)[C@H]1O[C@@H](n2cnc3c(NCc4cccc(I)c4)ncnc32)[C@H](O)[C@@H]1O [IB-MECA, 1-deoxy-1-(6-{[(3-iodophenyl)methyl]amino}9H-purine-9-yl)-N-methyl-β-d-ribofuranuronamide] | down regulates | stimulates neutrophil recovery | inhibits progression of colon carcinoma | inhibits the development of tumors | preventing the development | protects against cytotoxic-induced myelo-toxicity | stimulates the production of neutrophils | inhibited | inhibited
